Source: patent publication US6528251B2, “Method of managing the chemotherapy of patients who are HIV positive based on the phenotypic drug sensitivity of human HIV strains” (Virco N.V., priority 1996, dated 2003)
Read-outs that look alike come from different tables or passages of the source.

How the values were obtained:
Format in all cases: cell-based, HIV-1
[1] = tested on: recombinant virus from patient viral RNA (Example 9); assay: Recombinant virus assay (MT4/MTT), patient of Example 9 (multiple nucleoside analogue RT-inhibitors); details: for IC50: Human immunodeficiency virus 1, Table 5, Example 9 patient virus; for ratio (1)/(2): Table 5, patient mean IC50 / recIIIB IC50, Example 9
Protocol: (§1) RNA was isolated from 100 μl of plasma according to the method described by Boom, R. et al. (1990, supra), and was reverse transcribed with the GeneAmp reverse transcriptase kit (Perkin Elmer) as described by the manufacturer and using an HIV-1 specific downstream primer (OUT3: 5′-CATTGCTCTCCAATTACTGTGATATTTCTCATC-3′; SEQ ID NO: 1). PCR on reverse transcribed RNA was performed with inner and outer primers as described by Kellam, P. and Larder, B. A. (1994, supra). After chloroform extraction and centrifugation on Centricon 100 columns or centrifugation on anion-exchange spin columns (Quiagen), the isolated PCR product was ready for use in the transfection reactions.
(§2) MT4 cells were subcultured at a density of 250,000 cells/ml before transfection (exponential growth phase). Cells were pelleted and resuspended in phosphate buffered saline (PBS) at a concentration of […]. A 0.8 ml portion (2.5 10E6 cells/ml) was used for each transfection. Transfection was performed with the Bio-Rad Gene pulser making use of 0.4 cm electrode cuvettes. Cells were electroporated in the presence of […] of linearised pHIVΔRT plasmid and approximately 5 μg of RT PCR product at 250SF and 300 V, followed by a 30-min incubation at room temperature. Subsequently, 10 ml of fresh culture medium was added to the cell suspension and incubation was performed at 37° C. in a humidified atmosphere of 5% CO2.
(§3) During 7 to 10 days following the transfection, cells were monitored for the appearance of cytopathogenic effect (CPE). In the absence thereof, cells were subcultured in different flasks. Subsequently, culture supernatants of transfected cells were used to create a stock of recombinant virus and stored in 1.5 ml aliquots at −70° C.
(§4) After titration of the new viruses, the stocks were used for antiviral experiments in the presence of serial dilutions of different HIV inhibitors. Titres of the harvested supematants were determined by limited serial dilution titration of virus in MT4 cells.
(§5) Viruses with a useful titre were used in antiviral experiments. For this purpose, 96-well microtitre plates were filled with 100μl of complete culture medium. Subsequently, stock solutions of compounds were added in 25 μl volumes to series of duplicate wells. HIV- and mock-infected cell samples were included for each drug (or drug combination). Exponentially growing MT4 cells were then transferred to the microtitre plates at a density of 150,000 cells/ml. The cell cultures were then incubated at 37° C. in a humidified atmosphere of 5% CO2. Five days after infection, the viability of the mock- and HIV-infected cells was examined spectrophotometrically by the M1T method (Pauwels, R. et al. J. Virol. Meth. (1988), 20: 309-321) as described in Section 6 below.
(§6) To each well of the microtiter plates, 20 μl of a solution of MTT (7.5 mg/ml in PBS) was added. The plates were further incubated at 37° C. for 1 h. Then, 150 μl of medium was removed without disturbing the MT4 cell clusters containing the formazan crystals. Solubilization of the formazan crystals was achieved by adding 100 μl 5% Triton X-100 in acidified isopropanol (5 ml concentrated HCl per liter solvent). Complete dissolution of the formazan crystals was obtained after the plates had been placed on a plate shaker for 10 min. Finally the absorbances were read at two wavelengths (540 and 690 nm). From these optical density (OD) data, 50% inhibitory (IC50) and 50% cytotoxic (CC50) concentrations were derived.
An HIV-infected patient with a therapy history including multiple nucleoside analogue RT-inhibitors donated plasma whose susceptibility to a number of RT inhibitors was determined according to the protocol set out in Example 1. Recombinant wild type HIV strain recIIIB was used as a reference HIV virus.

[2] = tested on: recombinant virus from patient viral RNA (Example 5, 3TC resistant HIV strains); assay: Recombinant virus assay (MT4/MTT), patient of Example 5 (AZT, then AZT+3TC therapy); details: for ratio (1)/(2): Table 1, patient mean IC50 / recIIIB IC50, Example 5
Protocol: as §1, §2, §3, §4, §5, §6
An HIV infected patient who received AZT from December 1989 until an undocumented later date, and switched to a combined chemotherapy of AZT+3TC (1:1) from February 1994 until October 1995 donated plasma whose susceptibility to a number of RT inhibitors was determined according to the above described protocol of Example 1. Recombinant wild type HIV strain recIIIB was used in said protocol as a reference HIV virus.

[3] = tested on: Recombinant wild type HIV strain recIIIB; assay: Antiviral MT4/MTT assay with reference virus recIIIB
Protocol: as §4, §5, §6

[4] = tested on: recombinant virus from patient viral RNA (Example 7, drug-naive patient); assay: Recombinant virus assay (MT4/MTT), drug-naive patient of Example 7; details: for IC50: Human immunodeficiency virus 1, Table 3, Example 7 patient virus; for ratio (1)/(2): Table 3, patient mean IC50 / recIIIB IC50, Example 7
Protocol: as §1, §2, §3, §4, §5, §6
A drug-naive HIV-infected patient donated plasma whose susceptibility to a number of RT inhibitors was determined according to the protocol set out in Example 1. Recombinant wild type HIV strain recIIIB was used as a reference HIV virus.

[5] = tested on: recombinant virus from patient viral RNA (Example 8); assay: Recombinant virus assay (MT4/MTT), patient of Example 8 (therapy history AZT, 3TC and loviride); details: for IC50: Human immunodeficiency virus 1, Table 4, Example 8 patient virus; for ratio (1)/(2): Table 4, patient mean IC50 / recIIIB IC50, Example 8
Protocol: as §1, §2, §3, §4, §5, §6
An HIV-infected patient with a therapy history including AZT, 3TC and loviride donated plasma whose susceptibility to a number of RT inhibitors was determined according to the protocol set out in Example 1. Recombinant wild type HIV strain recIIIB was used as a reference HIV virus.

[6] = tested on: recombinant virus from patient viral RNA (Example 6, drug-naive patient); assay: Recombinant virus assay (MT4/MTT), drug-naive patient of Example 6; details: for IC50: Human immunodeficiency virus 1, Table 2, Example 6 patient virus; for ratio (1)/(2): Table 2, patient mean IC50 / recIIIB IC50, Example 6
Protocol: as §1, §2, §3, §4, §5, §6
A drug-naive HIV infected patient donated plasma whose susceptibility to a number of RT inhibitors was determined according to the above described protocol of Example 1. Recombinant wild type HIV strain recIIIB was used in said protocol as a reference HIV virus.

[7] = MT4 cells, read-out: Anti-HIV-1 activity IC50 (μM) Exp. 1
[8] = MT4 cells, read-out: Anti-HIV-1 activity IC50 (μM) Exp. 2
[9] = mean, read-out: Anti-HIV-1 activity IC50 (μM) Mean (1)
[10] = Human immunodeficiency virus 1, Table 2, reference run of Example 6, read-out: Anti-HIV-1 activity IC50 (μM) recIIIB ref (2)
[11] = Human immunodeficiency virus 1, Table 3, reference run of Example 7, read-out: Anti-HIV-1 activity IC50 (μM) recIIIB ref (2)
[12] = Human immunodeficiency virus 1, Table 4, reference run of Example 8, read-out: Anti-HIV-1 activity IC50 (μM) recIIIB ref (2)
[13] = Human immunodeficiency virus 1, Table 5, reference run of Example 9, read-out: Anti-HIV-1 activity IC50 (μM) recIIIB ref (2)
[14] = mean of Exp. 1 and 2, read-out: Anti-HIV-1 activity IC50 (μM) Mean (1)
[15] = Human immunodeficiency virus 1, Table 1, Example 5 patient virus, MT4 cells, read-out: Anti-HIV-1 activity IC50 (μM) Exp. 1
[16] = Human immunodeficiency virus 1, Table 1, Example 5 patient virus, MT4 cells, read-out: Anti-HIV-1 activity IC50 (μM) Exp. 2
[17] = Human immunodeficiency virus 1, Table 1, Example 5 patient virus, mean of Exp. 1 and 2, read-out: Anti-HIV-1 activity IC50 (μM) Mean (1)
[18] = Human immunodeficiency virus 1, Table 1, reference run of Example 5, read-out: Anti-HIV-1 activity IC50 (μM) recIIIB ref (2)

Cc1cn([C@H]2C=C[C@@H](CO)O2)c(=O)[nH]c1=O [d4T, stavudine]
IC50 [1, 7]: > 100 µM
IC50 [1, 8]: > 100 µM
IC50 [1, 9]: > 100 µM
ratio (1)/(2) [1]: >8
IC50 ([2]; Human immunodeficiency virus 1, MT4, read-out: Anti-HIV-1 activity IC50 (μM) Exp. 1): 0.07 µM
IC50 ([2]; Human immunodeficiency virus 1, MT4, read-out: Anti-HIV-1 activity IC50 (μM) Exp. 2): 0.49 µM
IC50 ([2]; Human immunodeficiency virus 1, read-out: Anti-HIV-1 activity IC50 (μM) Mean (1)): 0.06 µM
ratio (1)/(2) [2]: 0.5
IC50 [3, 10]: 1.74 µM
IC50 [3, 11]: 1.37 µM
IC50 [3, 12]: 5.46 µM
IC50 [3, 13]: 12 µM
IC50 ([3]; Human immunodeficiency virus 1, read-out: Anti-HIV-1 activity IC50 (μM) recIIIB ref (2), Table 1, reference run of Example 5): 0.12 µM
IC50 [4, 7]: 1.14 µM
IC50 [4, 8]: 1.66 µM
IC50 [4, 9]: 1.4 µM
ratio (1)/(2) [4]: 1
IC50 [5, 7]: 7.5 µM
IC50 [5, 8]: 7.1 µM
IC50 [5, 9]: 7.3 µM
ratio (1)/(2) [5]: 1
IC50 [6, 7]: 1.31 µM
IC50 [6, 8]: 0.97 µM
IC50 [6, 14]: 1.14 µM
ratio (1)/(2) [6]: 1

Nc1ccn([C@H]2CC[C@@H](CO)O2)c(=O)n1 [ddC, zalcitabine]
IC50 [1, 7]: 60.1 µM
IC50 [1, 8]: 73 µM
IC50 [1, 9]: 66.6 µM
ratio (1)/(2) [1]: 19
IC50 [2, 15]: 0.2 µM
IC50 [2, 16]: 0.2 µM
IC50 [2, 17]: 0.2 µM
ratio (1)/(2) [2]: 0.5
IC50 [3, 18]: 0.38 µM
IC50 [3, 10]: 2.21 µM
IC50 [3, 11]: 1.62 µM
IC50 [3, 12]: 1.93 µM
IC50 [3, 13]: 3.44 µM
IC50 [4, 7]: 1.04 µM
IC50 [4, 8]: 1.39 µM
IC50 [4, 9]: 1.22 µM
ratio (1)/(2) [4]: 0.8
IC50 [5, 7]: 9.29 µM
IC50 [5, 8]: 8.51 µM
IC50 [5, 9]: 8.9 µM
ratio (1)/(2) [5]: 5
IC50 [6, 7]: 1.45 µM
IC50 [6, 8]: 1.47 µM
IC50 [6, 14]: 1.46 µM
ratio (1)/(2) [6]: 1

Nc1ccn([C@@H]2CS[C@H](CO)O2)c(=O)n1 [3TC, lamivudine]
IC50 [1, 7]: > 100 µM
IC50 [1, 8]: > 100 µM
IC50 [1, 9]: > 100 µM
ratio (1)/(2) [1]: >6
IC50 [2, 15]: 31.6 µM
IC50 [2, 16]: 100 µM
IC50 [2, 17]: 65.8 µM
ratio (1)/(2) [2]: 118
IC50 [3, 18]: 0.56 µM
IC50 [3, 10]: 3.08 µM
IC50 [3, 11]: 1.38 µM
IC50 [3, 12]: 6.3 µM
IC50 [3, 13]: 16.7 µM
IC50 ([3]; Human immunodeficiency virus 1, Table 6, reference run of Example 10, read-out: Anti-HIV-1 activity IC50 (μM) recIIIB ref (2)): 4.61 µM
IC50 ([3]; Human immunodeficiency virus 1, read-out: Anti-HIV-1 activity IC50 (μM) recIIIB ref (2), Table 7, reference run of Example 11): 5.18 µM
IC50 ([3]; Human immunodeficiency virus 1, read-out: Anti-HIV-1 activity IC50 (μM) recIIIB ref (2), Table 8, reference run of Example 12): 4.61 µM
IC50 [4, 7]: 2.17 µM
IC50 [4, 9]: 2.17 µM
ratio (1)/(2) [4]: 2
IC50 [5, 7]: > 100 µM
IC50 [5, 8]: > 100 µM
IC50 [5, 9]: > 100 µM
ratio (1)/(2) [5]: >16
IC50 [6, 7]: 1.81 µM
IC50 [6, 8]: 2.02 µM
IC50 [6, 14]: 1.91 µM
ratio (1)/(2) [6]: 1
